Literature values in patent US20020072062A1, “Chloramphenicol biosynthetic pathway and gene cluster” (Diversa Corporation, priority 1999, published 2002).
Like-named read-outs stand apart in the source and are kept apart here.

Key:
[1] = tested on: Streptomyces venezuelae ISP5230
[2] = tested on: Cm-sensitive Micrococcus luteus; details: against Cm-sensitive Micrococcus luteus; metabolite of Cm from S. lividans M252 pJV4 transformants

What does the source list for `Nc1ccc(S(N)(=O)=O)cc1` [sulfanilamide]?
sulfanilamide resistance ([1]; before replacement of chromosomal pabAB): 25 micrograms mL-1; sulfanilamide resistance ([1]; chromosomal pabAB replaced with copy disrupted by apramycin resistance gene): 5 micrograms mL-1

Which inhibitory activity [2] does the source give for `O=C(NC(COP(=O)(O)O)C(O)c1ccc([N+](=O)[O-])cc1)C(Cl)Cl` (stereo not drawn) [3′-O-phospho-Cm] here?
The inhibitory activity was “negligible inhibitory activity”.
